Experimental data as given in the supplement of paper PMC11061612.

Legend:
Assay in all cases: Bliss excess, mean over the matrix (fraction); higher = more synergy
[1] = system: KM-H2 (Hodgkin's Lymphoma)
Method in brief: (§1)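 Cell lines in DMEM/F12 or RPMI with 10% FBS were plated in 1536-well plates, held 24 hours at 37°C, 5% CO2, then given two-drug dose matrices for 72 hours (DMSO typically 0.2%). Viability was read by CellTiter-Glo 2.0 luminescence and scaled as inhibition from 0 (vehicle wells) to 1 (blank wells). Combination Emax is the second-highest inhibition in the matrix; Bliss excess is observed combination effect minus expected EA + EB − EA·EB, EA and EB being single-agent effects.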

[2] = system: C3A (Hepatocellular Carcinoma)
Method in brief: as §1

[3] = system: MDA-MB-157 (Breast Carcinoma)
Method in brief: as §1

NCI-H2369 (Mesothelioma) = system: NCI-H2369 (Mesothelioma)
Method in brief: as §1

[4] = system: DMS-273 (Small Cell Lung Carcinoma)
Method in brief: as §1

[5] = system: KARPAS-1106P (B-Cell Non-Hodgkin's Lymphoma)
Method in brief: as §1

[6] = system: 697 (B-Lymphoblastic Leukemia)
Method in brief: as §1

CAL-78 (Chondrosarcoma) = system: CAL-78 (Chondrosarcoma)
Method in brief: as §1

[7] = system: OCI-AML2 (Acute Myeloid Leukemia)
Method in brief: as §1

[8] = system: TE-5 (Esophageal Squamous Cell Carcinoma)
Method in brief: as §1

[9] = system: SW756 (Cervical Carcinoma)
Method in brief: as §1

SN12C (Kidney Carcinoma) = system: SN12C (Kidney Carcinoma)
Method in brief: as §1

ES7 (Ewing's Sarcoma) = system: ES7 (Ewing's Sarcoma)
Method in brief: as §1

[10] = system: CFPAC-1 (Pancreatic Carcinoma)
Method in brief: as §1

DSH1 (Bladder Carcinoma) = system: DSH1 (Bladder Carcinoma)
Method in brief: as §1

SK-N-FI (Neuroblastoma) = system: SK-N-FI (Neuroblastoma)
Method in brief: as §1

NCI-H2595 (Mesothelioma) = system: NCI-H2595 (Mesothelioma)
Method in brief: as §1

[11] = system: TGBC24TKB (Biliary Tract Carcinoma)
Method in brief: as §1

[12] = system: SNU-C5 (Colorectal Carcinoma)
Method in brief: as §1

[13] = system: SUIT-2 (Pancreatic Carcinoma)
Method in brief: as §1

SMILES | Bliss excess [1] | Bliss excess [2] | Bliss excess [3] | Bliss excess (NCI-H2369 (Mesothelioma)) | Bliss excess [4] | Bliss excess [5] | Bliss excess [6] | Bliss excess (CAL-78 (Chondrosarcoma)) | Bliss excess [7] | Bliss excess [8] | Bliss excess [9] | Bliss excess (SN12C (Kidney Carcinoma)) | Bliss excess (ES7 (Ewing's Sarcoma)) | Bliss excess [10] | Bliss excess (DSH1 (Bladder Carcinoma)) | Bliss excess (SK-N-FI (Neuroblastoma)) | Bliss excess (NCI-H2595 (Mesothelioma)) | Bliss excess [11] | Bliss excess [12] | Bliss excess [13]
CN(CCO)CC[C@H](CSc1ccccc1)Nc1ccc(S(=O)(=O)NC(=O)c2ccc(N3CCC([C@@H](O)c4ccccc4-c4ccc(Cl)cc4)CC3)cc2)cc1S(=O)(=O)C(F)(F)F [AZD4320] + C1CN(CCC1(C(=O)N[C@@H](CCO)C2=CC=C(C=C2)Cl)N)C3=NC=NC4=C3C=CN4 [Capivasertib] (first compound max 1 µM, 7x7, partner max 3 µM) | -0.0205 | -0.0904 | -0.0178 | 0.0332 | -0.0782 | -0.0259 | -0.0179 | -0.0482 | -0.0333 | -0.0068 | -0.0506 | -0.0636 | 0.0083 | -0.0527 | -0.0038 | -0.0158 | -0.0458 | 0.0015 | -0.067 | -0.054
CC(=O)c1c(C)c2cnc(Nc3ccc(N4CCNCC4)cn3)nc2n(C2CCCC2)c1=O [Palbociclib] + Cn1cnc2c(F)c(Nc3ccc(Br)cc3Cl)c(C(=O)NOCCO)cc21 [Selumetinib] (first compound max 10 µM, 7x7, partner max 10 µM) | 0.0036 | -0.0011 | -0.0396 | -0.0483 | -0.0393 | 0.0399 | -0.0685 | -0.0463 | 0.0685 | -0.0511 | -0.0736 | -0.0321 | 0.0067 | -0.0354 | -0.0834 | 0.016 | -0.0429 | 0.0495 | -0.0615 | 0.0481
Cn1cnc2c(F)c(Nc3ccc(Br)cc3Cl)c(C(=O)NOCCO)cc21 [Selumetinib] + CCN(CCO)CCCOc1ccc2c(Nc3cc(CC(=O)Nc4cccc(F)c4)[nH]n3)ncnc2c1 [AZD2811] (first compound max 10 µM, 7x7, partner max 1 µM) | -0.0193 | -0.0272 | -0.0064 | -0.0517 | -0.0144 | 0.0245 | 0.0059 | -0.0522 | 0.0545 | -0.0191 | -0.008 | -0.0444 | -0.0524 | -0.0529 | 0.0022 | 0.0239 | -0.0185 | 0.003 | 0.038 | -0.0526
CN(CCO)CC[C@H](CSc1ccccc1)Nc1ccc(S(=O)(=O)NC(=O)c2ccc(N3CCC([C@@H](O)c4ccccc4-c4ccc(Cl)cc4)CC3)cc2)cc1S(=O)(=O)C(F)(F)F [AZD4320] + C=CCn1c(=O)c2cnc(Nc3ccc(N4CCN(C)CC4)cc3)nc2n1-c1cccc(C(C)(C)O)n1 [AZD1775] (first compound max 1 µM, partner max 1 µM) | -0.006 | -0.0619 | 0.0043 | -0.0413 | -0.0229 | 0.028 | 0.0545 | 0.073 | 0.0312 | 0.0773 | -0.0225 | -0.0099 | 0.136 | -0.0373 | 0.0646 | -0.0331 | -0.0113 | -0.0323 | -0.0062 | -0.0088
COc1nnc2ccc(N3CCC(c4ccc(OCCN5CCN(C)C(=O)[C@H]5C)cc4)CC3)nn12 [AZD5153] + CC1(C)CCC(CN2CCN(c3ccc(C(=O)NS(=O)(=O)c4ccc(NCC5CCOCC5)c([N+](=O)[O-])c4)c(Oc4cnc5[nH]ccc5c4)c3)CC2)=C(c2ccc(Cl)cc2)C1 [Venetoclax] (first compound max 1 µM, 7x7, partner max 1 µM) | 0.0245 | -0.105 | -0.0454 | -0.0641 | -0.0627 | -0.0308 | -0.0358 | -0.0999 | -0.0422 | -0.0087 | -0.0461 | -0.0343 | -0.0694 | -0.0228 | -0.0524 | -0.0581 | 0.0185 | -0.0456 | -0.077 | -0.0769
COc1nnc2ccc(N3CCC(c4ccc(OCCN5CCN(C)C(=O)[C@H]5C)cc4)CC3)nn12 [AZD5153] + Cc1c2c(nn1C)CSCc1cc(n(C)n1)CSc1cc(c3ccccc3c1)OCCCc1c(C(=O)O)n(C)c3c-2c(Cl)ccc13 [AZD5991] (first compound max 1 µM, 7x7, partner max 1 µM) | -0.0495 | -0.0262 | 0.0297 | -0.0499 | -0.1 | 0.0005 | -0.0558 | -0.0263 | -0.0185 | -0.0158 | -0.0238 | -0.0285 | 0.0052 | -0.0208 | 0.0112 | -0.0656 | 0.015 | 0.0447 | -0.0417 | -0.0318
COc1cccc(OCCCN)c1-c1cc(Nc2cnc(C#N)cn2)n[nH]1 [Prexasertib] + O=C(c1cc(Cc2n[nH]c(=O)c3ccccc23)ccc1F)N1CCN(C(=O)C2CC2)CC1 [Olaparib] (first compound max 1 µM, 7x7, partner max 10 µM) | -0.0611 | -0.0461 | -0.104 | -0.0284 | -0.0009 | -0.0936 | 0.0371 | -0.0535 | -0.0242 | 0.0048 | 0.0038 | -0.0425 | 0.0058 | -0.0834 | -0.162 | -0.0683 | -0.0053 | -0.0191 | -0.109 | -0.0219
CN(CCO)CC[C@H](CSc1ccccc1)Nc1ccc(S(=O)(=O)NC(=O)c2ccc(N3CCC([C@@H](O)c4ccccc4-c4ccc(Cl)cc4)CC3)cc2)cc1S(=O)(=O)C(F)(F)F [AZD4320] + C[C@@H]1COCCN1C2=NC(=NC(=C2)C3(CC3)[S@](=N)(=O)C)C4=C5C=CNC5=NC=C4 [AZD6738] (first compound max 1 µM, 7x7, partner max 10 µM) | 0.0381 | -0.016 | -0.0254 | 0.0246 | -0.025 | -0.0301 | 0.013 | 0.0071 | 0.0397 | 0.0256 | -0.0658 | -0.0499 | 0.0638 | -0.0077 | 0.0405 | -0.0299 | -0.0222 | -0.0245 | -0.0131 | -0.098
CN(CCO)CC[C@H](CSc1ccccc1)Nc1ccc(S(=O)(=O)NC(=O)c2ccc(N3CCC([C@@H](O)c4ccccc4-c4ccc(Cl)cc4)CC3)cc2)cc1S(=O)(=O)C(F)(F)F [AZD4320] + CN(C)CCCOc1ccc(-c2ccc3ncc4c(c3c2)n(C2CCOCC2)c(=O)n4C)cn1 [AZD0156] (first compound max 1 µM, 7x7, partner max 1 µM) | -0.0038 | -0.0281 | -0.0046 | -0.036 | -0.0199 | -0.0055 | -0.0116 | -0.004 | -0.0296 | -0.0135 | -0.0362 | -0.0633 | 0.0177 | -0.0354 | 0.0303 | -0.0252 | -0.0348 | 0.0025 | 0.0125 | -0.0407
COc1cccc(OCCCN)c1-c1cc(Nc2cnc(C#N)cn2)n[nH]1 [Prexasertib] + Cc1cc2ncnn2cc1Nc1ncc2c(n1)n(C1CCOCC1)c(=O)n2C [AZD7648] (first compound max 1 µM, 7x7, partner max 10 µM) | -0.023 | -0.0264 | -0.0594 | -0.0252 | -0.0121 | -0.0595 | -0.0293 | -0.0473 | -0.0211 | 0.0129 | 0.0098 | -0.0816 | -0.0483 | -0.0398 | -0.0289 | -0.0084 | -0.0172 | -0.0412 | -0.0495 | -0.0063
COc1nnc2ccc(N3CCC(c4ccc(OCCN5CCN(C)C(=O)[C@H]5C)cc4)CC3)nn12 [AZD5153] + CCN(CCO)CCCOc1ccc2c(Nc3cc(CC(=O)Nc4cccc(F)c4)[nH]n3)ncnc2c1 [AZD2811] (first compound max 1 µM, 7x7, partner max 1 µM) | 0 | -0.0567 | -0.0004 | -0.0563 | -0.0409 | 0.019 | -0.0118 | -0.0564 | 0.0016 | -0.0124 | -0.0067 | 0.0129 | -0.0372 | -0.088 | -0.0802 | -0.0579 | -0.0227 | -0.0349 | -0.0541 | -0.0399
